According to patent publication US20250090489A1, “CATIONIC POLYMERIC NANOCARRIERS INHIBIT CHEMOTHERAPY-INDUCED CANCER METASTASIS AND COGNITIVE IMPAIRMENT” (The Trustees of Columbia University in the City of New York, priority 2022, published 2025):

Assays:
[1] = Balb/c mice; compared to saline control
Protocol: In order to detect if mice experienced any behavioral changes under treatments, open field tests and pain sensitivity behavioral tests were performed.

[2] = tested on: MDA-MB-231 human breast tumor with lung metastasis; details: NSG mouse
Description: The anticancer efficacy of the nanoparticles has been evaluated in a NSG mouse model bearing MDA-MB-231 human breast tumor with lung metastasis. […] A thorough characterization of lung metastasis has been performed with a combination of IVIS imaging, H&E staining, and machine learning.

Row | distance traveled in open field test [1] | Compound | lung metastasis ([2]; MDA-MB-231, IVIS imaging, H&E staining, machine learning) | primary tumor inhibition efficacy ([2]; MDA-MB-231 tumor)
1 | significant attenuation in the distance | COc1cccc2c1C(=O)c1c(O)c3c(c(O)c1C2=O)C[C@@](O)(C(=O)CO)C[C@@H]3O[C@H]1C[C@H](N)[C@H](O)[C@H](C)O1 [doxorubicin] | – | –
2 | – | CC(=O)O[C@H]1C(=O)[C@@]2(C)[C@H]([C@H](OC(=O)c3ccccc3)[C@]3(O)C[C@H](OC(=O)[C@H](O)[C@@H](NC(=O)c4ccccc4)c4ccccc4)C(C)=C1C3(C)C)[C@]1(OC(C)=O)CO[C@@H]1C[C@@H]2O [paclitaxel free drug, paclitaxel] | shows no therapeutic effect to metastasis, and even induce more metastasis | inhibits primary tumor
